Data: US9969694B2, “N-(arylalkyl)-N′-pyrazolyl-urea, thiourea, guanidine and cyanoguanidine compounds as TrkA kinase inhibitors” (Array BioPharma Inc., priority 2012, dated 2018)

Tests used:
[1] = target: T1, DAPK2 (Homo sapiens, UniProt Q9UIK4); experiment: Off-Target Kinase Profiling; assay type: biochemical; conditions: 10 μM; ATP near Km
T1 construct: purchased Millipore, Inc. (KinaseProfiler service)
Summary of the method: (§1)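 Run as part of a full commercial kinase panel: compound fixed at 10 μM, duplicate wells, ATP concentration near the individual enzyme Km. Output is POC, averaged across both determinations.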

[2] = target: T2, IR (Homo sapiens, UniProt P06213); experiment: Off-Target Kinase Profiling; assay type: biochemical; conditions: 10 μM; ATP near Km
T2 construct: purchased Millipore, Inc. (KinaseProfiler service)
Summary of the method: as §1

[3] = target: T3, NLK (Homo sapiens, UniProt Q9UBE8); experiment: Off-Target Kinase Profiling; assay type: biochemical; conditions: 10 μM; ATP near Km
T3 construct: purchased Millipore, Inc. (KinaseProfiler service)
T3 sequence (Q9UBE8 whole entry): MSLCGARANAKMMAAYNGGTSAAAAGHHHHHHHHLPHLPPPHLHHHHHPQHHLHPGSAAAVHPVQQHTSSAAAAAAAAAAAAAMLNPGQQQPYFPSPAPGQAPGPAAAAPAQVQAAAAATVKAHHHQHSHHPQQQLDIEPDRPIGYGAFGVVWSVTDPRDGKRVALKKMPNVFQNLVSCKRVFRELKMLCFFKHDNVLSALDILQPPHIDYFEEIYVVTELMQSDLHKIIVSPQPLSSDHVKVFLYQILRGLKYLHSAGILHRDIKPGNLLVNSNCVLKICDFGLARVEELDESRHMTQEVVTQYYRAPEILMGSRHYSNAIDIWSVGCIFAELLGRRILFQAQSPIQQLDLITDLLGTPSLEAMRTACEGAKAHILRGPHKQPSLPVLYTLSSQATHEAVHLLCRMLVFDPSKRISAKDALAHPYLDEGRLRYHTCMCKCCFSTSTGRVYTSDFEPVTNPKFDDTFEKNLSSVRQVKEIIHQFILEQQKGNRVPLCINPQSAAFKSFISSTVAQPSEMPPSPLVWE
Summary of the method: as §1

[4] = target: T4, HIPK3 (Homo sapiens, UniProt Q9H422); experiment: Off-Target Kinase Profiling; assay type: biochemical; conditions: 10 μM; ATP near Km
T4 construct: purchased Millipore, Inc. (KinaseProfiler service)
T4 sequence (Q9H422 whole entry): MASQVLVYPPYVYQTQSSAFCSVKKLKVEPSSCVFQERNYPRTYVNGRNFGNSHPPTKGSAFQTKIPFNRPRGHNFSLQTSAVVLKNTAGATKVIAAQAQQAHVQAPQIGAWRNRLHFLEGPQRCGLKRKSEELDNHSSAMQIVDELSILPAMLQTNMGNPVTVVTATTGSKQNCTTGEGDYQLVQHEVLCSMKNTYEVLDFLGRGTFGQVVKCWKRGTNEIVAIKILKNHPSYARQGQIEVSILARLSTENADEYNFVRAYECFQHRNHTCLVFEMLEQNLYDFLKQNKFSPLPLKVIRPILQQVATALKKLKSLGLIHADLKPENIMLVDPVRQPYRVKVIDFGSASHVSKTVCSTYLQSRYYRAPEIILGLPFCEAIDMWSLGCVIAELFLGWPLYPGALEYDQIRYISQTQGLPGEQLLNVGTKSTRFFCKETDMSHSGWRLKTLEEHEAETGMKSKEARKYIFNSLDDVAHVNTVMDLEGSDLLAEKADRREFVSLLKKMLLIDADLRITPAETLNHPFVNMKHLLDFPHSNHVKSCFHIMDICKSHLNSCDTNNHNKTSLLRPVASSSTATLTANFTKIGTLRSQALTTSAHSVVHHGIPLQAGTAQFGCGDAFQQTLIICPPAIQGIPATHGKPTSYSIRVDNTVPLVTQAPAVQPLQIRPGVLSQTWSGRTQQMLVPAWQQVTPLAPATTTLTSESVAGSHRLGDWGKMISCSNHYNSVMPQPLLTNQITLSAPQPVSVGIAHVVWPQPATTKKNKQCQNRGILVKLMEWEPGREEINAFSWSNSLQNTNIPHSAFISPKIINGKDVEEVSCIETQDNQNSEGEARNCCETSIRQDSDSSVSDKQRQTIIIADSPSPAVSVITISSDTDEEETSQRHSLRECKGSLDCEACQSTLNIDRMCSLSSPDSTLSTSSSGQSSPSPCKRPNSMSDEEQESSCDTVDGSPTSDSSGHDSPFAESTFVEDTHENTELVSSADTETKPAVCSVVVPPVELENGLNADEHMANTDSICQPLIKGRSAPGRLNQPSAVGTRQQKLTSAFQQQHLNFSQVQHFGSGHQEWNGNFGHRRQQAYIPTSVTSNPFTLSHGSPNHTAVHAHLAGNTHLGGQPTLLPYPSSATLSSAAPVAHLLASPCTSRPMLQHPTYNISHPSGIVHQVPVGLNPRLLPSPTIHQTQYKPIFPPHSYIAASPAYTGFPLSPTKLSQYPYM
Summary of the method: as §1

[5] = target: T5, TAO1 (Homo sapiens, UniProt Q7L7X3); experiment: Off-Target Kinase Profiling; assay type: biochemical; conditions: 10 μM; ATP near Km
T5 construct: purchased Millipore, Inc. (KinaseProfiler service)
Summary of the method: as §1

[6] = target: T6, MSK1 (Homo sapiens, UniProt O75582); experiment: Off-Target Kinase Profiling; assay type: biochemical; conditions: 10 μM; ATP near Km
T6 construct: purchased Millipore, Inc. (KinaseProfiler service)
Summary of the method: as §1

[7] = target: T7, KDR (Homo sapiens, UniProt P35968); experiment: Off-Target Kinase Profiling; assay type: biochemical; conditions: 10 μM; ATP near Km
T7 construct: purchased Millipore, Inc. (KinaseProfiler service)
Summary of the method: as §1

[8] = target: T8, DAPK1 (Homo sapiens, UniProt P53355); experiment: Off-Target Kinase Profiling; assay type: biochemical; conditions: 10 μM; ATP near Km
T8 construct: purchased Millipore, Inc. (KinaseProfiler service)
T8 sequence (P53355 whole entry): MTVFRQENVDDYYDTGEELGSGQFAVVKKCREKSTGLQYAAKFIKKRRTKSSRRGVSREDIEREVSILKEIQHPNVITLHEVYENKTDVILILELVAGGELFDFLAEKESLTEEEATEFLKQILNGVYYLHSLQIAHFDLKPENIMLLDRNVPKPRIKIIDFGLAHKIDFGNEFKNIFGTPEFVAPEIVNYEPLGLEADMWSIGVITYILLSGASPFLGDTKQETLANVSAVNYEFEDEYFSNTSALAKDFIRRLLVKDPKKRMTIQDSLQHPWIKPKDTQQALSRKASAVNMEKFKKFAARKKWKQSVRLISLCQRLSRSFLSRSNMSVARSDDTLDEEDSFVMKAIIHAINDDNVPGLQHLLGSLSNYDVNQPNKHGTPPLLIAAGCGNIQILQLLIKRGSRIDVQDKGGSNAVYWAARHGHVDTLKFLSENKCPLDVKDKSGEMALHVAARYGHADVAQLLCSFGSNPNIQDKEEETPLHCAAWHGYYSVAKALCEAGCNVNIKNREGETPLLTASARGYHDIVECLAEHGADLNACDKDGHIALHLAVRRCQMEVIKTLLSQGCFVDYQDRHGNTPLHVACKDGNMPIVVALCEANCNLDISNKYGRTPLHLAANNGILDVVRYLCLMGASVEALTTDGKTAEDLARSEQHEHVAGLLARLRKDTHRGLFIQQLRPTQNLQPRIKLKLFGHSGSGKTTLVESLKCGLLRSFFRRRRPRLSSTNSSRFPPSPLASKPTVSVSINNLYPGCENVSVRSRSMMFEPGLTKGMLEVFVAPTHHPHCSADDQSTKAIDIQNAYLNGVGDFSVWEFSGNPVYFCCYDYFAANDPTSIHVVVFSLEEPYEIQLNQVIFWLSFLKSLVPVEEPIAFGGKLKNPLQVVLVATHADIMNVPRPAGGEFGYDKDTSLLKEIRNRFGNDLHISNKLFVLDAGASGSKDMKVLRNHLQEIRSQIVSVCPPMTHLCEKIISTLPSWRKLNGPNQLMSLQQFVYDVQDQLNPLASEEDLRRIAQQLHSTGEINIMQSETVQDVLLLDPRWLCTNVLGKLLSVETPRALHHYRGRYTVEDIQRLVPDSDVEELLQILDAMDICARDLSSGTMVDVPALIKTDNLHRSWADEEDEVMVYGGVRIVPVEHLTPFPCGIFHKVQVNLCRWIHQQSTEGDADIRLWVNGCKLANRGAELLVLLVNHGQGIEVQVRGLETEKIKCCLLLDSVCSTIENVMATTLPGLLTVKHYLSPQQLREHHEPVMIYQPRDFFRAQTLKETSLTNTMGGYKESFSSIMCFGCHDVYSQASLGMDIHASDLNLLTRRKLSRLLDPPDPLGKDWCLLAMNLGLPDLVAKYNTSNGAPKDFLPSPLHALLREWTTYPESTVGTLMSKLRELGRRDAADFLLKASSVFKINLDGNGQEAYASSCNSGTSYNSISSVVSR
Summary of the method: as §1

[9] = target: T9, Fes (Homo sapiens, UniProt P07332); experiment: Off-Target Kinase Profiling; assay type: biochemical; conditions: 10 μM; ATP near Km
T9 construct: purchased Millipore, Inc. (KinaseProfiler service)
T9 sequence (P07332 whole entry): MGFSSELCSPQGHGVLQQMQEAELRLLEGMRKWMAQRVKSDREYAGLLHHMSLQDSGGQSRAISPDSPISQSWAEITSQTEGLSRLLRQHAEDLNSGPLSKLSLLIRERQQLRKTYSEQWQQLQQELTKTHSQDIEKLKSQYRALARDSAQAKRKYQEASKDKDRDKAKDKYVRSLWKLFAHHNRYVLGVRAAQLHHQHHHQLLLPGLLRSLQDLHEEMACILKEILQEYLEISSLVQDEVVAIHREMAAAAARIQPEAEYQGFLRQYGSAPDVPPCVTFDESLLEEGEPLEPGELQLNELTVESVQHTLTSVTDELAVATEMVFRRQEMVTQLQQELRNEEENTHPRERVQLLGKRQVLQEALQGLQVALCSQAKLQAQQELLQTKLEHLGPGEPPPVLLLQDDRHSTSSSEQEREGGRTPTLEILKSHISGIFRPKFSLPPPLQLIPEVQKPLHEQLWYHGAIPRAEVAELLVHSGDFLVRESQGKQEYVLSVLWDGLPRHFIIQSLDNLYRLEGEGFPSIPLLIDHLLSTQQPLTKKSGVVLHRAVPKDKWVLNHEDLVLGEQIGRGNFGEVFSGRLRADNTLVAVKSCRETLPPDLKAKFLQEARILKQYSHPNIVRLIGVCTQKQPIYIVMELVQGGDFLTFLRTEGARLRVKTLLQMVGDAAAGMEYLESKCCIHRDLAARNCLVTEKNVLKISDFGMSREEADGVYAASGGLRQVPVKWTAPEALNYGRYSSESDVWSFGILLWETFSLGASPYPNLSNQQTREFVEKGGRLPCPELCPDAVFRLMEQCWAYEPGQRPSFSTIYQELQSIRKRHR
Summary of the method: as §1

[10] = target: T10, SRPK1 (Homo sapiens, UniProt Q96SB4); experiment: Off-Target Kinase Profiling; assay type: biochemical; conditions: 10 μM; ATP near Km
T10 construct: purchased Millipore, Inc. (KinaseProfiler service)
Summary of the method: as §1

[11] = target: T11, p70S6K (Homo sapiens, UniProt P23443); experiment: Off-Target Kinase Profiling; assay type: biochemical; conditions: 10 μM; ATP near Km
T11 construct: purchased Millipore, Inc. (KinaseProfiler service)
T11 sequence (P23443 whole entry): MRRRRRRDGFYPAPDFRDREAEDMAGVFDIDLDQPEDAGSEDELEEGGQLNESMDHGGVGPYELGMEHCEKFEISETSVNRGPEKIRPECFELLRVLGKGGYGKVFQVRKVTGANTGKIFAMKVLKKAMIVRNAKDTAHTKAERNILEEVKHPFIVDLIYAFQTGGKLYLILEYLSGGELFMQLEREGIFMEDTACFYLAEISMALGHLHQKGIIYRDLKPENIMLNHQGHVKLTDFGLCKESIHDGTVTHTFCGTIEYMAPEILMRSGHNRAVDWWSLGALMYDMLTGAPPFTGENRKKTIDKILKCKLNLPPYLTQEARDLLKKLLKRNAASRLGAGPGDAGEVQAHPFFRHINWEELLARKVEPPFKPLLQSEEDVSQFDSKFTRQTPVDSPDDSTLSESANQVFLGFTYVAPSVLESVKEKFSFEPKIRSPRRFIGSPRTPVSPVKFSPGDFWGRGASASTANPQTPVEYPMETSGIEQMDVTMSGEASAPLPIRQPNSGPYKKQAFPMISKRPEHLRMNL
Summary of the method: as §1

[12] = target: T12, FAK (Homo sapiens, UniProt Q05397); experiment: Off-Target Kinase Profiling; assay type: biochemical; conditions: 10 μM; ATP near Km
T12 construct: purchased Millipore, Inc. (KinaseProfiler service)
Summary of the method: as §1

[13] = target: T13, JAK3 (Homo sapiens, UniProt P52333); experiment: Off-Target Kinase Profiling; assay type: biochemical; conditions: 10 μM; ATP near Km
T13 construct: purchased Millipore, Inc. (KinaseProfiler service)
Summary of the method: as §1

[14] = target: T14, PRKG1alpha (Homo sapiens, UniProt Q13976); experiment: Off-Target Kinase Profiling; assay type: biochemical; conditions: 10 μM; ATP near Km
T14 construct: purchased Millipore, Inc. (KinaseProfiler service)
Summary of the method: as §1

[15] = target: T15, Fgr (Homo sapiens, UniProt P09769); experiment: Off-Target Kinase Profiling; assay type: biochemical; conditions: 10 μM; ATP near Km
T15 construct: purchased Millipore, Inc. (KinaseProfiler service)
Summary of the method: as §1

[16] = target: T16, MLK1 (Homo sapiens, UniProt P80192); experiment: Off-Target Kinase Profiling; assay type: biochemical; conditions: 10 μM; ATP near Km
T16 construct: purchased Millipore, Inc. (KinaseProfiler service)
Summary of the method: as §1

[17] = target: T17, MKK7beta (Homo sapiens, UniProt O14733); experiment: Off-Target Kinase Profiling; assay type: biochemical; conditions: 10 μM; ATP near Km
T17 construct: purchased Millipore, Inc. (KinaseProfiler service)
Summary of the method: as §1

[18] = target: T18, JNK3 (Homo sapiens, UniProt P53779); experiment: Off-Target Kinase Profiling; assay type: biochemical; conditions: 10 μM; ATP near Km
T18 construct: purchased Millipore, Inc. (KinaseProfiler service)
Summary of the method: as §1

[19] = target: T19, MARK2 (Homo sapiens, UniProt Q7KZI7); experiment: Off-Target Kinase Profiling; assay type: biochemical; conditions: 10 μM; ATP near Km
T19 construct: purchased Millipore, Inc. (KinaseProfiler service)
Summary of the method: as §1

[20] = target: T20, ARK5 (Homo sapiens, UniProt O60285); experiment: Off-Target Kinase Profiling; assay type: biochemical; conditions: 10 μM; ATP near Km
T20 construct: purchased Millipore (KinaseProfiler service)
Summary of the method: as §1

[21] = target: T21, ITK (Homo sapiens, UniProt Q08881); experiment: Off-Target Kinase Profiling; assay type: biochemical; conditions: 10 μM; ATP near Km
T21 construct: purchased Millipore, Inc. (KinaseProfiler service)
Summary of the method: as §1

[22] = target: T22, Ros (Homo sapiens, UniProt P08922); experiment: Off-Target Kinase Profiling; assay type: biochemical; conditions: 10 μM; ATP near Km
T22 construct: purchased Millipore, Inc. (KinaseProfiler service)
Summary of the method: as §1

[23] = target: T23, ROCK-I (Homo sapiens, UniProt Q13464); experiment: Off-Target Kinase Profiling; assay type: biochemical; conditions: 10 μM; ATP near Km
T23 construct: purchased Millipore, Inc. (KinaseProfiler service)
Summary of the method: as §1

[24] = target: T24, PKD2 (Homo sapiens, UniProt Q9BZL6); experiment: Off-Target Kinase Profiling; assay type: biochemical; conditions: 10 μM; ATP near Km
T24 construct: purchased Millipore, Inc. (KinaseProfiler service)
Summary of the method: as §1

[25] = target: T25, His-tagged recombinant human TrkA (Homo sapiens, UniProt P04629); experiment: TrkA Kinase Binding Assay (LanthaScreen Eu); conditions: averaged IC50; TR-FRET binding, 60 min, 22° C.; read-out: TrkA Enzyme IC50
T25 construct: 6HIS tagged cytoplasmic domain from Invitrogen, Catalog No. PV3144; purchased Invitrogen PV3144
T25 sequence (P04629 440-796 limits assumed): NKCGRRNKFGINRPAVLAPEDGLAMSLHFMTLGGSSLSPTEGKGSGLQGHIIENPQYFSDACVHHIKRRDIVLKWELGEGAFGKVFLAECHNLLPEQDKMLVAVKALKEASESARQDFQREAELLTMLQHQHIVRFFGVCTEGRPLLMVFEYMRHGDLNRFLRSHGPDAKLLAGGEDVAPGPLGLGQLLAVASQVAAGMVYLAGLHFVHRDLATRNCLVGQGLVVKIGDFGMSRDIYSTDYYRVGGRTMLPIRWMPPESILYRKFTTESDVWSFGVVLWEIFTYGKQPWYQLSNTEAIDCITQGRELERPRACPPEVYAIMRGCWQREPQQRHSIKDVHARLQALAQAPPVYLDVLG
Summary of the method: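 TR-FRET tracer displacement: 5 nM His-tagged TrkA cytoplasmic domain with 4 nM Tracer 236, biotinylated anti-His and Eu-streptavidin in pH 7.5 MOPS buffer, 2% DMSO, 60 min at 22 °C. 665/615 nm emission ratio gave percent of control; IC50 from four-parameter fit.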

Avg POC DAPK2 [1] [POC] | Avg POC IR [2] [POC] | Avg POC NLK [3] [POC] | Avg POC HIPK3 [4] [POC] | Avg POC TAO1 [5] [POC] | Avg POC MSK1 [6] [POC] | Avg POC KDR [7] [POC] | Avg POC DAPK1 [8] [POC] | Avg POC Fes [9] [POC] | Avg POC SRPK1 [10] [POC] | Avg POC p70S6K [11] [POC] | Avg POC FAK [12] [POC] | Avg POC JAK3 [13] [POC] | Avg POC PRKG1alpha [14] [POC] | Avg POC Fgr [15] [POC] | Avg POC MLK1 [16] [POC] | Avg POC MKK7beta [17] [POC] | Avg POC JNK3 [18] [POC] | Avg POC MARK2 [19] [POC] | Avg POC ARK5 [20] [POC] | Structure (SMILES) | further results
109.5 | 68 | 121 | 102 | 118.5 | 147 | 139.5 | 141.5 | 109 | 113.5 | 377 | 99 | 114 | 122.5 | 121 | 105.5 | 159 | 135 | 103.5 | 85.5 | COCc1ccc(C(F)(F)F)c(CNC(=O)Nc2c(C)c(-c3cnn(C)c3)nn2-c2ccccc2)c1 [Example 33, 1-(1′,4-dimethyl-1-phenyl-1H,1′H-[3,4′-bipyrazol]-5-yl)-3-(5-(methoxymethyl)-2-(trifluoromethyl)benzyl)urea] | Avg POC ITK [21]: 124 POC; Avg POC Ros [22]: 100.5 POC; Avg POC ROCK-I [23]: 120.5 POC; Avg POC PKD2 [24]: 106 POC; IC50 [25]: < 100 nM
105 | 90 | 107 | 95.5 | 111 | 88.5 | 97.5 | 98 | 90 | 116 | 111 | 96.5 | 94.5 | 113 | 97 | 100.5 | 132.5 | 74 | 98.5 | 87 | COCc1ccc(C2CCC2)c(CNC(=O)Nc2c(C)c(-c3cnc(C)nc3)nn2-c2ccccc2)c1 [Example 10, 1-(2-cyclobutyl-5-(methoxymethyl)benzyl)-3-(4-methyl-3-(2-methylpyrimidin-5-yl)-1-phenyl-1H-pyrazol-5-yl)urea] | Avg POC ITK [21]: 112 POC; Avg POC Ros [22]: 97.5 POC; Avg POC ROCK-I [23]: 114 POC; Avg POC PKD2 [24]: 106 POC; IC50 [25]: < 100 nM
